Results reported in patent publication US20260022142A1, “MACROCYCLIC IMMUNOMODULATORS” (Bristol-Myers Squibb Company, priority 2022, published 2026).
pIC50: −log10 of the molar value. Bridge positions count the residues as written; N and C are the ends. Square brackets hold non-standard residues; d marks the D form. Peptide text beside a SMILES is read from it. * marks the point of attachment. ξ: configuration not given here. Bip = N[C@@H](Cc1ccc(-c2ccccc2)cc1)C(=O)O; Phe(3-Me) = Cc1cccc(C[C@H](N)C(=O)O)c1; Cha = N[C@@H](CC1CCCCC1)C(=O)O; Cit = NC(=O)NCCC[C@H](N)C(=O)O; dNMeN = CN[C@H](CC(N)=O)C(=O)O; Thr(3ξ) = CC(O)[C@H](N)C(=O)O; Dap(Me) = CNC[C@H](N)C(=O)O; Carboxymethyl = O=C(O)C*; Orn = NCCC[C@H](N)C(=O)O; Aun = NCCCCCCCCCCC(=O)O; Dab = NCC[C@H](N)C(=O)O; ξDab = NCCC(N)C(=O)O

Molecular target: T1, PD-1/PD-L1 interaction (PE-labeled human PD-L1-Ig binding to Jurkat cell line over-expressing human PD-1) (Homo sapiens, UniProt Q15116)
T1 construct: expressed in transfected cells; host or cells: Jurkat
Test: Jurkat-PD-1 Cell Binding High-Content Screening Assay (CBA)
Format: cell-based
Settings: Jurkat cell line over-expressing human PD-1; PE-labeled PD-L1-Ig 20 nM final; read-out: Jurkat hPD1-PDL1 IC50
Summary of the method: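 Human PD-L1-Ig carrying a covalent PE label on its Ig tag serves as the probe, applied at 20 nM final to compound-treated (2 h, 37° C) Jurkat-hPD-1 cells in medium with 10% fetal calf serum. After one hour, fixation and nuclear staining precede high-content image analysis.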

T1 sequence (Q15116 25-288): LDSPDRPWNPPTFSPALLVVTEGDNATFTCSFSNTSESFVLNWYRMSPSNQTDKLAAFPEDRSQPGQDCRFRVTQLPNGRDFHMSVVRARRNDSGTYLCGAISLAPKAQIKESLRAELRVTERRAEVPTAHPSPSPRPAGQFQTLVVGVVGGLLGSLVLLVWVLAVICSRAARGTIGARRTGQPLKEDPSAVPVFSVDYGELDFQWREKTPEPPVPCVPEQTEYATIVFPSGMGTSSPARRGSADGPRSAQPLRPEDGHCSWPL

SMILES: Cc1cccc(C[C@@H]2NC(=O)[C@H](CC(=O)O)NC(=O)[C@H](Cc3ccc(OCC(=O)O)cc3)NC(=O)[C@H](C(C)O)NC(=O)CSC[C@@H](C(=O)N[C@H](CC(N)=O)C(=O)NCCCCCCCCCCC(=O)O)NC(=O)[C@H](C(C)O)NC(=O)[C@H](C(C)C)NC(=O)[C@H](CC3CCCCC3)NC(=O)[C@H](CCN)NC(=O)[C@@H](CC(C)C)NC(=O)[C@H](CCCN)NC(=O)[C@H](CCCNC(N)=O)NC(=O)[C@H](Cc3ccc(-c4ccccc4)cc3)NC(=O)[C@H](C(C)C)NC2=O)c1 (stereo partly drawn) [Compound 3444] ({CH2CO}-[Thr(3ξ)]Y(Carboxymethyl)D[Phe(3-Me)]V[Bip][Cit][Orn][dL][Dab][Cha]V[Thr(3ξ)]C[dN][Aun]-OH; thioether N-14)
- pIC50: 7.87

SMILES: CC(=O)NCCCC[C@@H]1NC(=O)[C@H](C(C)C)NC(=O)[C@H](CC2CCCCC2)NC(=O)[C@H](CCN)NC(=O)[C@@H](CC(C)C)NC(=O)[C@H](CCCN)NC(=O)[C@H](C(C)C)NC(=O)[C@H](Cc2ccc(-c3ccccc3)cc2)NC(=O)[C@H](C(C)C)NC(=O)[C@H](Cc2cccc(C)c2)NC(=O)[C@H](CC(=O)O)NC(=O)[C@H](Cc2ccc(OCC(=O)O)cc2)NC(=O)[C@H](C(C)O)NC(=O)CSC[C@@H](C(=O)N(C)[C@H](CC(N)=O)C(=O)NCCCCCCCCCCC(=O)O)NC1=O (stereo partly drawn) [Compound 3445] ({CH2CO}-[Thr(3ξ)]Y(Carboxymethyl)D[Phe(3-Me)]V[Bip]V[Orn][dL][Dab][Cha]VK(Ac)C[dNMeN][Aun]-OH; thioether N-14)
- pIC50: 6.80

SMILES: CC(C)C[C@H]1NC(=O)[C@H](CCCN)NC(=O)[C@H](CCCNC(N)=O)NC(=O)[C@H](Cc2ccc(-c3ccccc3)cc2)NC(=O)[C@H](C(C)C)NC(=O)[C@H](Cc2c[nH]c3ccccc23)NC(=O)[C@H](CC(=O)O)NC(=O)[C@H](Cc2ccc(OCC(=O)O)cc2)NC(=O)[C@H](C(C)O)NC(=O)CSC[C@@H](C(=O)N[C@H](CCC(N)=O)C(=O)NCCCCCCCCCCC(=O)O)NC(=O)[C@H](C(C)O)NC(=O)[C@H](C(C)C)NC(=O)[C@H](CC2CCCCC2)NC(=O)[C@H](CCN)NC1=O (stereo partly drawn) [Compound 3446] ({CH2CO}-[Thr(3ξ)]Y(Carboxymethyl)DWV[Bip][Cit][Orn][dL][Dab][Cha]V[Thr(3ξ)]C[dQ][Aun]-OH; thioether N-14)
- pIC50: 7.19

SMILES: CC(=O)NCCCC[C@@H]1NC(=O)[C@H](C(C)C)NC(=O)[C@H](CC2CCCCC2)NC(=O)[C@H](CCN)NC(=O)[C@@H](CC(C)C)NC(=O)[C@H](CCCN)NC(=O)[C@H](C(C)C)NC(=O)[C@H](Cc2ccc(-c3ccccc3)cc2)NC(=O)[C@H](C(C)C)NC(=O)[C@H](Cc2cccc(C)c2)NC(=O)[C@H](CC(=O)O)NC(=O)[C@H](Cc2ccc(OCC(=O)O)cc2)NC(=O)[C@H](C(C)O)NC(=O)CSC[C@@H](C(=O)N[C@H](CCC(N)=O)C(=O)NCCCCCCCCCCC(=O)O)NC1=O (stereo partly drawn) [Compound 3447] ({CH2CO}-[Thr(3ξ)]Y(Carboxymethyl)D[Phe(3-Me)]V[Bip]V[Orn][dL][Dab][Cha]VK(Ac)C[dQ][Aun]-OH; thioether N-14)
- pIC50: 7.98

SMILES: Cc1cccc(C[C@@H]2NC(=O)[C@H](CC(=O)O)NC(=O)[C@H](Cc3ccc(OCC(=O)O)cc3)NC(=O)[C@H](C(C)O)NC(=O)CSC[C@@H](C(=O)NC(CCN)C(=O)NCCCCCCCCCCC(=O)O)NC(=O)[C@H](C(C)O)NC(=O)[C@H](C(C)C)NC(=O)[C@H](CC3CCCCC3)NC(=O)[C@H](CCN)NC(=O)[C@@H](CC(C)C)NC(=O)[C@H](CCCN)NC(=O)[C@H](CCC(=O)O)NC(=O)[C@H](Cc3ccc(-c4ccccc4)cc3)NC(=O)[C@H](CCC(=O)O)NC2=O)c1 (stereo partly drawn) [Compound 3448] ({CH2CO}-[Thr(3ξ)]Y(Carboxymethyl)D[Phe(3-Me)]E[Bip]E[Orn][dL][Dab][Cha]V[Thr(3ξ)]C[ξDab][Aun]-OH; thioether N-14)
- pIC50: 7.04

SMILES: Cc1cccc(C[C@@H]2NC(=O)[C@H](CC(=O)O)NC(=O)[C@H](Cc3ccc(OCC(=O)O)cc3)NC(=O)[C@H](CCCNC(=N)N)NC(=O)CSC[C@@H](C(=O)N[C@@H](CCN)C(=O)NCCCCCCCCCCC(=O)O)NC(=O)[C@H](C(C)O)NC(=O)[C@H](C(C)C)NC(=O)[C@H](CC3CCCCC3)NC(=O)[C@H](CCN)NC(=O)[C@@H](CC(C)C)NC(=O)[C@H](CCCNC(N)=O)NC(=O)[C@H](Cc3ccc(OCC(=O)O)cc3)NC(=O)[C@H](Cc3ccc(-c4ccccc4)cc3)NC(=O)[C@H](C(C)C)NC2=O)c1 (stereo partly drawn) [Compound 3450] ({CH2CO}-RY(Carboxymethyl)D[Phe(3-Me)]V[Bip]Y(Carboxymethyl)[Cit][dL][Dab][Cha]V[Thr(3ξ)]C[Dab][Aun]-OH; thioether N-14)
- pIC50: 7.74

SMILES: Cc1cccc(C[C@@H]2NC(=O)[C@H](CC(=O)O)NC(=O)[C@H](Cc3ccc(OCC(=O)O)cc3)NC(=O)[C@H](C(C)O)NC(=O)CSC[C@@H](C(=O)N[C@@H](CCN)C(=O)NCCCCCCCCCCC(=O)O)NC(=O)[C@H](C(C)O)NC(=O)[C@H](C(C)C)NC(=O)[C@H](CC3CCCCC3)NC(=O)[C@H](CCN)NC(=O)[C@@H](CC(C)C)NC(=O)[C@H](CCCNC(N)=O)NC(=O)[C@H](Cc3ccc(OCC(=O)O)cc3)NC(=O)[C@H](Cc3ccc(-c4ccccc4)cc3)NC(=O)[C@H](C(C)C)NC2=O)c1 (stereo partly drawn) [Compound 3451] ({CH2CO}-[Thr(3ξ)]Y(Carboxymethyl)D[Phe(3-Me)]V[Bip]Y(Carboxymethyl)[Cit][dL][Dab][Cha]V[Thr(3ξ)]C[Dab][Aun]-OH; thioether N-14)
- pIC50: 7.74

SMILES: Cc1cccc(C[C@@H]2NC(=O)[C@H](CC(=O)O)NC(=O)[C@H](Cc3ccc(OCC(=O)O)cc3)NC(=O)[C@H](CCCNC(=N)N)NC(=O)CSC[C@@H](C(=O)N[C@H](CC(N)=O)C(=O)NCCCCCCCCCCC(=O)O)NC(=O)[C@H](C(C)O)NC(=O)[C@H](C(C)C)NC(=O)[C@H](CC3CCCCC3)NC(=O)[C@H](CCN)NC(=O)[C@@H](CC(C)C)NC(=O)[C@H](CCCN)NC(=O)[C@H](Cc3ccc(O)cc3)NC(=O)[C@H](Cc3ccc(-c4ccccc4)cc3)NC(=O)[C@H](C(C)C)NC2=O)c1 (stereo partly drawn) [Compound 3452] ({CH2CO}-RY(Carboxymethyl)D[Phe(3-Me)]V[Bip]Y[Orn][dL][Dab][Cha]V[Thr(3ξ)]C[dN][Aun]-OH; thioether N-14)
- pIC50: 7.59

SMILES: Cc1cccc(C[C@@H]2NC(=O)[C@H](CC(=O)O)NC(=O)[C@H](Cc3ccc(OCC(=O)O)cc3)NC(=O)[C@H](Cc3c[nH]cn3)NC(=O)CSC[C@@H](C(=O)N[C@@H](CCN)C(=O)NCCCCCCCCCCC(=O)O)NC(=O)[C@H](C(C)O)NC(=O)[C@H](C(C)C)NC(=O)[C@H](CC3CCCCC3)NC(=O)[C@H](CCN)NC(=O)[C@@H](CC(C)C)NC(=O)[C@H](CCCN)NC(=O)[C@H](CCCNC(N)=O)NC(=O)[C@H](Cc3ccc(-c4ccccc4)cc3)NC(=O)[C@H](C(C)C)NC2=O)c1 (stereo partly drawn) [Compound 3453] ({CH2CO}-HY(Carboxymethyl)D[Phe(3-Me)]V[Bip][Cit][Orn][dL][Dab][Cha]V[Thr(3ξ)]C[Dab][Aun]-OH; thioether N-14)
- pIC50: 7.70

SMILES: CNC[C@@H]1NC(=O)CSC[C@@H](C(=O)N[C@@H](CCN)C(=O)NCCCCCCCCCCC(=O)O)NC(=O)[C@H](C(C)O)NC(=O)[C@H](C(C)C)NC(=O)[C@H](CC2CCCCC2)NC(=O)[C@H](CCN)NC(=O)[C@@H](CC(C)C)NC(=O)[C@H](CCCN)NC(=O)[C@H](CCCNC(N)=O)NC(=O)[C@H](Cc2ccc(-c3ccccc3)cc2)NC(=O)[C@H](C(C)C)NC(=O)[C@H](Cc2cccc(C)c2)NC(=O)[C@H](CC(=O)O)NC(=O)[C@H](Cc2ccc(OCC(=O)O)cc2)NC1=O (stereo partly drawn) [Compound 3454] ({CH2CO}-[Dap(Me)]Y(Carboxymethyl)D[Phe(3-Me)]V[Bip][Cit][Orn][dL][Dab][Cha]V[Thr(3ξ)]C[Dab][Aun]-OH; thioether N-14)
- pIC50: 7.79
